Results from patent US20230339890A1, “AMINO ALCOHOL COMPOUNDS AND USES THEREOF” (Kineta, Inc., priority 2020, published 2023).

biological target: Recombinant human CYP51A1 (lanosterol-14a-demethylase) (Homo sapiens (Human), UniProt Q16850); experiment: Inhibition of CYP51A1, fluorescent substrate BOMCC; type: biochemical; details: recombinant human CYP51A1 coexpressed with CYP reductase in bacterial membranes, 8-point concentration-response, read-out: CYP51 IC50
Text: Method: Recombinant human CYP51A1 (lanosterol-14a-demethylase) enzyme was coexpressed with CYP reductase in bacterial membranes and the fluorescent substrate BOMCC (a nonnatural substrate that causes increases in fluorescence upon CYP51A1-dependent demethylation) was used to obtain 8-point dose concentration-response curves for each compound.

Recombinant human CYP51A1 (lanosterol-14a-demethylase), sequence (Q16850 whole entry): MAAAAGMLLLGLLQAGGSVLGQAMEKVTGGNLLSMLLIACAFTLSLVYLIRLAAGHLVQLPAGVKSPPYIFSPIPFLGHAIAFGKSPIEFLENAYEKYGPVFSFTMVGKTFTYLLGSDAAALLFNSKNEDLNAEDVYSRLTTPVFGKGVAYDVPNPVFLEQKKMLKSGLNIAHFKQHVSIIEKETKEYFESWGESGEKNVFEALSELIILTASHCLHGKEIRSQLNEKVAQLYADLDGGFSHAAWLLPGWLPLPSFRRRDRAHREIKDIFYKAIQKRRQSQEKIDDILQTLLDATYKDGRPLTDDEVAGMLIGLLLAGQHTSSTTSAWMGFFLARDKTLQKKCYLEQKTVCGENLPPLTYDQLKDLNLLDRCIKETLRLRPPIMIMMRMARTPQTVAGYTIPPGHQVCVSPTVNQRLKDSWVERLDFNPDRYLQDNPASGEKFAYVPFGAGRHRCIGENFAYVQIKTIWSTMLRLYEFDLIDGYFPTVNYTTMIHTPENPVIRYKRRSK

| SMILES | IC50 [µM] |
| --- | --- |
| CCCN(CC(O)c1cncc(Br)c1)C(=O)Cc1ccc(Cl)c(Cl)c1 (stereo not shown) [compound 103, N-[2-(5-bromo-3-pyridyl)-2-hydroxyethyl]-2-(3,4-dichlorophenyl)-N-propyl-acetamide] | > 1 |
| CCCN(C[C@@H](O)c1cccnc1)C(=O)Cc1cccc2ncsc12 [compound 118, 2-(1,3-benzothiazol-7-yl)-N-[(2S)-2-hydroxy-2-(3-pyridyl)ethyl]-N-propyl-acetamide] | > 1 |
| CCCN(C[C@@H](O)c1cccnc1)C(=O)Cc1ccc2cc(Cl)sc2c1 [compound 67, 2-(2-chlorobenzothiophen-6-yl)-N-[(2S)-2-hydroxy-2-(3-pyridyl)ethyl]-N-propyl-acetamide] | ≤ 0.1 |
| CCCN(CC(O)c1cccnn1)C(=O)Cc1ccc(C#N)c(Cl)c1 (single isomer, unassigned) [compound 53, 2-(3-chloro-4-cyanophenyl)-N-(2-hydroxy-2-pyridazin-3-yl-ethyl)-N-propyl-acetamide] | 0.1 to 1 |
| CCN(C[C@@H](O)c1cccnc1)C(=O)Cc1ccc(Cl)c(Cl)c1 [compound 20, 2-(3,4-dichlorophenyl) -N-ethyl-N-[(2S)-2-hydroxy-2-(3-pyridyl)ethyl]ac etamide] | 0.1 to 1 |
| CCCN(C[C@@H](O)c1cccnc1)C(=O)Cc1ccc2ccccc2c1 [compound 7, N-[(2S)-2-hydroxy-2-(3-pyridyl)ethyl]-2-(2-naphthyl)-N-propyl-acetamide] | ≤ 0.1 |
| CC1(N(CC(O)c2cccnc2)C(=O)Cc2ccc(Cl)c(Cl)c2)CC1 (stereo not shown) [compound 9, 2-(3,4-dichlorophenyl)-N-[2-hydroxy-2-(3-pyridyl)ethyl]-N-(1-methylcyclopropyl)a cetamide] | 0.1 to 1 |
| CCCN(CC(O)c1cnccn1)C(=O)Cc1ccc(Cl)c(Cl)c1 (stereo not shown) [compound 96] | 0.1 to 1 |
| CCCN(CC(O)c1cccnn1)C(=O)Cc1ccc(C(F)(F)F)nc1 (stereo not shown) [compound 32, N-(2-hydroxy-2-pyridazin-3-yl-ethyl)-N-propyl-2-[6-(trifluoromethyl)-3-pyridyl]acetamide] | 0.1 to 1 |
| O=C(Cc1ccc(F)c(Cl)c1)N(CC1COC1)C[C@@H](O)c1cccnc1 [compound 65, 2-(3-chloro-4-fluoro-phenyl)-N-[(2S)-2-hydroxy-2-(3-pyridyl)ethyl]-N-(oxetan-3-ylmethyl)acetamide] | > 1 |
| CCCN(C[C@@H](O)c1cccnc1)C(=O)Cc1ccc2ncsc2c1 [compound 40, 2-(1,3-benzothiazol-6-yl)-N-[(2S)-2-hydroxy-2-(3-pyridyl)ethyl]-N-propyl-acetamide] | 0.1 to 1 |
| CC(=O)N1CCC(CN(C[C@@H](O)c2cccnc2)C(=O)Cc2ccc(C(F)(F)F)nc2)CC1 [compound 57, N-[(1-acetyl-4-piperidyl)methyl]-N-[(2S)-2-hydroxy-2-(3-pyridyl)ethyl]-2-[6-(trifluoromethyl)-3-pyridyl]acetamide] | > 1 |
| COC(=O)N(CCc1ccc(C(F)(F)F)nc1)CC(O)c1cccnc1 (stereo not shown) [compound 28, methyl N-[2-hydroxy-2-(3-pyridyl)ethyl]-N-[2-[6-(trifluoromethyl)-3-pyridyl]ethyl]carbamate] | > 1 |
| CCCN(C[C@@H](O)c1cccnc1)C(=O)C1Cc2cc(Cl)c(Br)cc2C1 (stereo partly drawn) [compound 131, 5-bromo-6-chloro-N-[(2S)-2-hydroxy-2-(3-pyridyl)ethyl]-N-propyl-indane-2-carboxamide] | ≤ 0.1 |
| CCCN(C[C@@H](O)c1cccnc1)C(=O)Cc1ccnc(C(F)(F)F)c1 [compound 127, N-[(2S)-2-hydroxy-2-(3-pyridyl)ethyl]-N-propyl-2-[2-(trifluoromethyl)-4-pyridyl]acetamide] | > 1 |
| CC1(CN(C[C@@H](O)c2cccnc2)C(=O)Cc2ccc(Cl)c(Cl)c2)CC1 [compound 27, 2-(3,4-dichlorophenyl) -N-[(2S)-2-hydroxy-2-(3-pyridyl)ethyl]-N-[(1-methylcyclopropyl)methyl]acetamide] | ≤ 0.1 |
| COC(=O)N(CCc1ccc2ccccc2c1)CC(O)c1cccnc1 (stereo not shown) [compound 82, Methyl N-[2-hydroxy-2-(3-pyridyl)ethyl]-N-[2-(2-naphthyl)ethyl]carba mate] | 0.1 to 1 |
| CCCN(CC(O)c1ccc(=O)n(C)c1)C(=O)Cc1ccc(Cl)c(Cl)c1 (stereo not shown) [compound 121, 2-(3,4-dichlorophenyl)-N-[2-hydroxy-2-(1-methyl-6-oxo-3-pyridyl)ethyl]-N-propyl-acetamide] | > 1 |
| CCCN(C[C@@H](O)c1cccnc1)C(=O)C(C)c1ccc(C(F)(F)F)nc1 (stereo partly drawn) [compound 132, N-[(2S)-2-hydroxy-2-(3-pyridyl)ethyl]-N-propyl-2-[6-(trifluoromethyl)-3-pyridyl]propanamide] | > 1 |
| CCCN(CC(O)c1cccnc1)C(=O)Cc1ccc2ccccc2c1 (stereo not shown) [compound 2, N-[2-hydroxy-2-(3-pyridyl)ethyl]-2-(2-naphthyl)-N-propyl-acetamide] | ≤ 0.1 |

| SMILES | IC50 [µM] |
| --- | --- |
| CCCN(C[C@@H](O)c1cccnc1)C(=O)C1Cc2cc(Cl)c(C#N)cc2C1 (stereo partly drawn) [compound 134, 5-chloro-6-cyano-N-[(2S)-2-hydroxy-2-(3-pyridyl)ethyl]-N-propyl-indane-2-carboxamide] | ≤ 0.1 |
| CCCN(C[C@@H](O)c1cccnc1)C(=O)Cc1ccc(C(F)(F)F)nc1 [compound 17, N-[(2S)-2-hydroxy-2-(3-pyridyl)ethyl]-N-propyl-2-[6-(trifluoromethyl)-3-pyridyl]acetamide] | ≤ 0.1 |
| CCCN(CC(O)c1cncc(C(C)(C)O)c1)C(=O)Cc1ccc(C(F)(F)F)nc1 (stereo not shown) [compound 55, N-[2-hydroxy-2-[5-(1-hydroxy-1-methyl-ethyl)-3-pyridyl]ethyl]-N-propyl-2-[6-(trifluoromethyl)-3-pyridyl]acetamide] | > 1 |
| CCCN(C[C@@H](O)c1cccnc1)C(=O)Cc1ccc(Cl)c(C#N)c1 [compound 24, 2-(4-chloro-3-cyano-phenyl)-N-[(2S)-2-hydroxy-2-(3-pyridyl)ethyl]-N-propyl-acetamide] | 0.1 to 1 |
| COC(=O)N(CCc1ccc(Cl)c(Cl)c1)CC(O)c1cccnc1 (stereo not shown) [compound 83, Methyl N-[2-(3,4-dichlorophenyl)ethyl] -N-[2-hydroxy-2-(3-pyridyl)ethyl]carbam ate] | 0.1 to 1 |
| O=C(Cc1ccc(C(F)(F)F)nc1)N(CC1CCNCC1)C[C@@H](O)c1cccnc1 [compound 81, N-[(2S)-2-hydroxy-2-(3-pyridyl)ethyl]-N-(4-piperidylmethyl)-2-[6-(trifluoromethyl)-3-pyridyl]acetamide] | > 1 |
| CCCN(CC(O)c1cccnc1)C(=O)Cc1ccc(Cl)c(Cl)c1 (stereo not shown) [compound 1, 2-(3,4-dichlorophenyl)-N-[2-hydroxy-2-(3-pyridyl)ethyl]-N-propyl-acetamide] | ≤ 0.1 |
| CCCN(C[C@@H](O)c1cccnc1)C(=O)Cc1ccc(C#N)nc1 [compound 39, 2-(6-cyano-3-pyridyl)-N-[(2S)-2-hydroxy-2-(3-pyridyl)ethyl]-N-propyl-acetamide] | > 1 |
| N#Cc1ccc(CC(=O)N(CC2COC2)C[C@@H](O)c2cccnc2)cc1Cl [compound 80, 2-(3-chloro-4-cyano-phenyl)-N-[(2S)-2-hydroxy-2-(3-pyridyl)ethyl]-N-(oxetan-3-ylmethyl)acetamide] | 0.1 to 1 |
| CCCN(C[C@@H](O)c1cccnc1)C(=O)Cc1ccc(OC(F)(F)F)c(Cl)c1 [compound 21, 2-[3-chloro-4-(trifluoromethoxy)phenyl]-N-[(2S)-2-hydroxy-2-(3-pyridyl)ethyl]-N-propyl-acetamide] | ≤ 0.1 |
| CC(C)(C)OC(=O)NCCCCCN(C[C@@H](O)c1cccnc1)C(=O)Cc1ccc(C(F)(F)F)nc1 [compound 141, tert-butyl N-[5-[[(2S)-2-hydroxy-2-(3-pyridyl)ethyl]-[2-[6-(trifluoromethyl)-3-pyridyl]acetyl]amino]pentyl]carbamate] | ≤ 0.1 |
| O=C(Cc1ccc(C(F)(F)F)nc1)N(CC(O)c1cnccn1)C1CCC1 (stereo not shown) [compound 85] | 0.1 to 1 |
| CCCN(CC(O)c1cccnn1)C(=O)Cc1ccc(OC(F)(F)F)c(Cl)c1 (stereo not shown) [compound 116] | 0.1 to 1 |
| CCCN(CC(O)c1cccnn1)C(=O)Cc1ccc(C#N)c(Cl)c1 (stereo not shown) [compound 52, 2-(3-chloro-4-cyanophenyl)-N-(2-hydroxy-2-pyridazin-3-yl-ethyl)-N-propyl-acetamide] | 0.1 to 1 |
| NCCCCCN(CC(O)c1cccnc1)C(=O)Cc1ccc(Cl)c(Cl)c1 (stereo not shown) [compound 33, N-(5-aminopentyl)-2-(3,4-dichlorophenyl)-N-[2-hydroxy-2-(3-pyridyl)ethyl]acet amide] | > 1 |
| O=C(Cc1ccc(C(F)(F)F)nc1)N(CC(O)c1cccnn1)C1CCC1 (single isomer, unassigned) [compound 61, N-cyclobutyl-N-(2-hydroxy-2-pyridazin-3-yl-ethyl)-2-[6-(trifluoromethyl)-3-pyridyl]acetamide] | 0.1 to 1 |
| CCCN(CC(O)c1ccc(C(F)(F)F)nc1)C(=O)Cc1ccc(Cl)c(Cl)c1 (stereo not shown) [compound 114, 2-(3,4-dichlorophenyl)-N-[2-hydroxy-2-[6-(trifluoromethyl)-3-pyridyl]ethyl]-N-propyl-acetamide] | > 1 |
| CCCN(CC(O)c1ccc(OC)nc1)C(=O)Cc1ccc(Cl)c(Cl)c1 (stereo not shown) [compound 102, 2-(3,4-dichlorophenyl)-N-[2-hydroxy-2-(6-methoxy-3-pyridyl)ethyl]-N-propyl-acetamide] | > 1 |
| CC(C)(C)OC(=O)NC1CCC(CN(C[C@@H](O)c2cccnc2)C(=O)Cc2ccc(C(F)(F)F)nc2)CC1 (stereo partly drawn) [compound 145, tert-butyl N-[4-[[[(2S)-2-hydroxy-2-(3-pyridyl)ethyl]-[2-[6-(trifluoromethyl)-3-pyridyl]acetyl]amino]methyl]cyclohexyl] carbamate] | 0.1 to 1 |
| CCCN(C[C@@H](O)c1cccnc1)C(=O)Cc1cncnc1 [compound 104, N-[(2S)-2-hydroxy-2-(3-pyridyl)ethyl]-N-propyl-2-pyrimidin-5-yl-acetamide] | > 1 |
